Like-named read-outs stand apart in the source and are kept apart here.
What was measured:
[1] = Stability in human blood serum (radio-HPLC); format: in vitro ADME; details: 37 °C
Method: Ligand stability in human blood serum (n = 2) and PBS (pH = 6.5) (n = 1) was determined for different time points (2 min, 30 min, 60 min, 120 min). Therefore, approx. 5 MBq of radioligand was added to 1 mL of fresh human serum at 37 °C or PBS at rt. At each given time point 100 µL of the mixture were transferred to a 1.5 mL Eppendorf tube containing 100 µL of acetonitrile. The vial was vortexed and centrifuged for 2 min at 14,000 1/min before 100 µL of the supernatant were diluted with 200 µL of water and injected into analytical radio-HPLC. The PBS solution was directly injected into the radio-HPLC. Ligand stability was determined by integrating the areas of the signals in the radio chromatogram in relation to the signal of the intact ligand.

[2] = Protein binding in human serum (MicroSpin G-50 columns); format: in vitro ADME; details: fresh human serum, 37 °C, n=3
Method: Protein binding was determined for different time points (2 min, 30 min, 60 min, 120 min) in triplicates using Sephadex MicroSpin G-50 columns (GE-Healthcare, Chicago, Illinois, USA). The columns were spun initially at 20,000 rcf for 1 min to remove the storage buffer. Then approx. 5 MBq of radioligand was added to 1 mL of fresh human serum and incubated at 37 °C. At each given timepoint 25 µL of the mixture was loaded on to the column, which was then spun at 20,000 rcf for 1 min. The activity content on the column (free radioligand) and in the filtrate (protein bound fraction) was quantified in a γ-counter.

[3] = Biodistribution studies in BALB/c mice; format: in vivo; details: for tissue uptake at 10 min / tissue uptake at 0.5 h / tissue uptake at 1 h: female, mouse, iv, total radioactivity, healthy BALB/c mice, 0.1 nmol i.v.; for tissue uptake at 10 min: 10 min p.i.; for tissue uptake at 0.5 h: 30 min p.i.; for tissue uptake at 1 h: 60 min p.i.
Method: For biodistribution studies 6-week-old female BALB/c mice (n=3) were injected with 0.1 nmol (100 µL, approx. 1 MBq) of labelled compound via the lateral tail vein and sacrificed after 10, 30, or 60 min by cervical dislocation. The mice were dissected, blood and organs (spleen, pancreas, stomach, intestine, liver, kidney, heart, lung, muscle and bone) were weighed and their activity measured in a γ-counter. For blocking experiments, mice were co-injected with 27.7 µmοl N-acetylgalactose.

[4] = Partition coefficient logD (n-octanol/PBS); format: physicochemical; details: n=6
Method: For determination of logarithmic partition coefficients (logD) n-Octanol (500 µL) and PBS (500 µL) were pipetted into eight 1.5 mL Protein Low-Bind Eppendorf tubes followed by addition of 300 kBq of labelled compound. The vials were vortexed for 5 min at 1,500 1/min and then centrifuged for 5 min at 20,000 rcf (Eppendorf Centrifuge 5424). Aliquots of 100 µL were taken out of each phase and the amount of activity was quantified in a γ-counter (Perkin Elmer 2480 Wizard2 3"; Waltham, Massachusetts, USA).

[5] = Blood, read-out: Biodistribution data, Blood
[6] = Femur, read-out: Biodistribution data, Femur
[7] = Heart, read-out: Biodistribution data, Heart
[8] = Intestine, read-out: Biodistribution data, Intestine
[9] = Kidneys, read-out: Biodistribution data, Kidneys
[10] = Liver, read-out: Biodistribution data, Liver
[11] = Lung, read-out: Biodistribution data, Lung
[12] = Muscle, read-out: Biodistribution data, Muscle
[13] = Pancreas, read-out: Biodistribution data, Pancreas
[14] = Spleen, read-out: Biodistribution data, Spleen
[15] = Stomach, read-out: Biodistribution data, Stomach

## NC(=O)CNC(=O)CNC(=O)[C@H](CCCCNC(=O)CCCCc1cn(C2O[C@H](CO)[C@H](O)[C@H](O)[C@H]2O)nn1)NC(=O)CNC(=O)CNC(=O)[C@H](CCCCNC(=O)CCCCc1cn(C2O[C@H](CO)[C@H](O)[C@H](O)[C@H]2O)nn1)NC(=O)CNC(=O)CNC(=O)[C@H](CCCCNC(=O)CCCCc1cn(C2O[C@H](CO)[C@H](O)[C@H](O)[C@H]2O)nn1)NC(=O)CCCNC(=O)CC[C@H](C(=O)O)N1CCN(CC(=O)O)CCN(CC(=O)O)CC1 (stereo partly shown) [[68Ga]Ga-TriLysan, metal not drawn]
[1]; 2 min, n=2, read-out: Serum stability (% of intact ligand)
  remaining at 2 min: 99.9%
[1]; 30 min, n=2, read-out: Serum stability (% of intact ligand)
  remaining at 0.5 h: 99.9%
[1]; 60 min, n=2, read-out: Serum stability (% of intact ligand)
  remaining at 1 h: 99.9%
[1]; 120 min, n=2
  Serum stability (% of intact ligand): 99.9 ± 0%
[2]; 2 min
  fraction unbound at 2 min, 5 MBq/mL: 0.82
[2]; 30 min
  fraction unbound at 30 min, 5 MBq/mL: 0.798
[2]; 60 min
  fraction unbound at 60 min, 5 MBq/mL: 0.831
[2]; 120 min
  fraction unbound: 0.857 ± 0.126
[3]; BALB/c mice, comparison with ^99mTc-GSA
  activity accumulation in the liver (in words): low accumulation
[3]; [5]
  tissue uptake at 10 min: 3.64 ± 0.08 %ID/g
  tissue uptake at 0.5 h: 1.6 ± 0.17 %ID/g
  tissue uptake at 1 h: 0.27 ± 0.01 %ID/g
[3]; [6]
  tissue uptake at 10 min: 0.89 ± 0.32 %ID/g
  tissue uptake at 0.5 h: 0.39 ± 0.02 %ID/g
  tissue uptake at 1 h: 0.11 ± 0.01 %ID/g
[3]; [7]
  tissue uptake at 10 min: 1.41 ± 0.01 %ID/g
  tissue uptake at 0.5 h: 0.63 ± 0.04 %ID/g
  tissue uptake at 1 h: 0.15 ± 0.01 %ID/g
[3]; [8]
  tissue uptake at 10 min: 1.24 ± 0.26 %ID/g
  tissue uptake at 0.5 h: 1.13 ± 0.02 %ID/g
  tissue uptake at 1 h: 1.04 ± 0.26 %ID/g
[3]; [9]
  tissue uptake at 10 min: 7.56 ± 1.35 %ID/g
  tissue uptake at 0.5 h: 4.99 ± 0.02 %ID/g
  tissue uptake at 1 h: 1.99 ± 0.34 %ID/g
[3]; [10]
  tissue uptake at 10 min: 9.45 ± 1.58 %ID/g
  tissue uptake at 0.5 h: 9.44 ± 1.99 %ID/g
  tissue uptake at 1 h: 9.19 ± 0.27 %ID/g
[3]; [11]
  tissue uptake at 10 min: 2.56 ± 0.17 %ID/g
  tissue uptake at 0.5 h: 1.15 ± 0.11 %ID/g
  tissue uptake at 1 h: 0.47 ± 0.06 %ID/g
[3]; [12]
  tissue uptake at 10 min: 0.9 ± 0.05 %ID/g
  tissue uptake at 0.5 h: 0.4 ± 0.04 %ID/g
  tissue uptake at 1 h: 0.12 %ID/g
[3]; [13]
  tissue uptake at 10 min: 0.97 ± 0.04 %ID/g
  tissue uptake at 0.5 h: 0.44 %ID/g
  tissue uptake at 1 h: 0.17 ± 0.01 %ID/g
[3]; [14]
  tissue uptake at 10 min: 1 ± 0.01 %ID/g
  tissue uptake at 0.5 h: 0.42 ± 0.02 %ID/g
  tissue uptake at 1 h: 0.16 %ID/g
[3]; [15]
  tissue uptake at 10 min: 1.55 ± 0.24 %ID/g
  tissue uptake at 0.5 h: 0.88 ± 0.09 %ID/g
  tissue uptake at 1 h: 0.31 ± 0.05 %ID/g
[4]
  logD: -3.52 ± 0.03
